Laboratory results: US20010056085A1, “Methods of using vesicant drug formulations” (priority 1996, published 2001)

Assay: Half-life of ADR destruction by UVA light in the presence of test compounds (decrease in absorbance at 480 nm)
Type: physicochemical
Settings: UVA light; for Half-Life of ADR Destruction, 100 μM Test Compound: 100 μM test compound alone; for Half-Life of ADR Destruction, 100 μM Test Compound and 0.5 μM Riboflavin: 100 μM test compound with 0.5 μM riboflavin

| Structure (SMILES) | Half-Life of ADR Destruction, 100 μM Test Compound | Half-Life of ADR Destruction, 100 μM Test Compound and 0.5 μM Riboflavin |
| --- | --- | --- |
| COc1ccc2c(C)c(C)[nH]c2c1 [6-Methoxy-2,3-dimethyl Indole] | 43.0 min | 23.2 min |
| O=C(O)c1ccccc1-c1ccccc1 [2-Phenyl Benzoic Acid] | 43.0 min | 43.0 min |
| O=c1[nH]c(=O)c2[nH]cnc2[nH]1 [Xanthine] | 50.2 min | 16.7 min |
| Nc1cccc2cc(S(=O)(=O)O)ccc12 [5-Amino-2-naphthalenesulfonic acid] | 50.2 min | – |
| O=C(O)c1ccc(-c2ccccc2)cc1 [4-Phenyl Benzoic Acid] | 43.0 min | – |
| O=C(O)c1cc(=O)c2ccccc2o1 [4-Chromone-2-carboxylic acid] | 15.8 min | 14.3 min |
| O=c1c2ccccc2oc2ccccc12 [Xanthrone] | 5.47 min | 6.84 min |
| O=C(c1ccccc1)c1ccc[nH]1 [2-Benzoyl pyrrole] | 50.2 min | 33.5 min |
| CC(=O)c1cccc2ccccc12 [1-Acetonaphthone] | 6.69 min | 6.54 min |
| Cc1ccc(CO)cc1N [3-Amino-4-Methyl Benzyl Alcohol] | – | 23.2 min |
| O=c1[nH]cnc2nc[nH]c12 [Hypoxanthine] | – | 43.0 min |
| Cc1ccc(C)[nH]1 [2,5-Dimethyl Pyrrole] | – | 9.12 min |
| Nc1c(F)cccc1F [2,6-Difluoro Aniline] | – | 27.4 min |
| Nc1ccc(C=CC(=O)O)cc1 [4-Amino Cinnamic Acid] | 50.2 min | 16.7 min |
| O=C(O)Cc1c[nH]c2ccccc12 [Indole-3-acetic acid] | 27.4 ± 14.1 min | 3.75 ± 0.22 min |
| O=C1c2c(O)cccc2C([C@@H]2O[C@H](CO)[C@@H](O)[C@H](O)[C@H]2O)c2cc(CO)cc(O)c21 (stereo partly shown) [Aloin] | 75.3 min | 75.3 min |
| O=C(O)c1ccc(O)cc1 [4-Hydroxy Benzoic Acid] | – | 100.3 min |
| NC(=O)c1cccc(N)c1 [3-Aminobenzamide] | – | 6.87 ± 1.20 min |
| O=C(O)c1ccc2[nH]ccc2c1 [Indole-5-carboxylic acid] | – | 12.0 min |
| CC(C)(C)c1ccc(N)cc1 [4-tert-Butyl Aniline] | – | 27.4 min |
| COc1cccc(C(C)=O)c1 [3′-Methoxyacetophenone] | 33.4 min | 33.4 min |
| COc1ccc(C(=O)CCC(=O)O)c2ccccc12 [Menbutone, 4-Methoxy-γ-oxo-1-naphthalenebutyric acid, reference compound] | 2.21 min | 1.37 min |
